Measurements as given in article PMC4414920 (European journal of pharmaceutical sciences : official …, 2015).
“Also recorded” adds a separate entry of the source. Where two headings read alike, the source gives them in different places.

What was measured:
[1] = tested on: human liver microsomes; type: in vitro ADME
[2] = tested on: recombinant human P450s 2C8, 2C9, 2C19, 2D6, 2E1, and 3A4; conditions: recombinant enzyme
[3] = cats; ref Parton et al., 2000; cited from earlier work
[4] = dogs; ref Parton et al., 2000; cited from earlier work
[5] = various animals; ref Trnavsky and Zachar, 1975; cited from earlier work
[6] = humans; ref Trnavsky and Zachar, 1975; cited from earlier work
[7] = tested on: P450 2C19; conditions: 50 mg/day for 14 days; in vivo mephenytoin oxidation; ref Chen et al., 2003; cited from earlier work
[8] = tested on: human liver microsomes; type: in vitro ADME; conditions: 100 μM desferrioxamine, Chelex 100-treated buffers, 0.5 nmol microsomal P450, 30 minutes
[9] = humans; ref Hutt et al., 1986; cited from earlier work
[10] = fluorescence detection, aspirin after deacetylation

SMILES: CC(=O)Oc1ccccc1C(=O)O [Aspirin, acetylsalicylic acid]
- product formation (2,3-DHBA or 2,5-DHBA) in the absence of NADPH [1]: No product formation
- maximum rate of 5-hydroxylation compared with salicylic acid ([1]; data not shown): approximately five times lower
- 2,5-DHBA formation with NADPH [1, 10]: detected
- concentrations of the products with recombinant P450s [2]: too low to quantitate
- half-life [3]: 22 h
- half-life [4]: 7.5 h
- half-life [5]: 1 to 38 h
- half-life [6]: ~ 6 h
- effect on P450 2C19 [7]: increase

SMILES: CC(=O)N(O)CCCCCNC(=O)CCC(=O)N(O)CCCCCNC(=O)CCC(=O)N(O)CCCCCN [desferrioxamine]
- effect on formation of 2,3- and 2,5-DHBA [8]: did not inhibit but instead increased; also recorded: no inhibition

SMILES: O=C(O)c1ccccc1O [salicylic acid]
- product formation (2,3-DHBA or 2,5-DHBA) in the absence of NADPH [1]: not detected
- 2,3-DHBA formation with NADPH [1, 10]: detected
- 2,5-DHBA formation with NADPH [1, 10]: detected
- directly excreted [9]: 1–31%

SMILES: O=C(O)CNC(=O)c1ccccc1O [salicyluric acid]
- share of the products of salicylic acid metabolism [9]: 20–65%
